Assay results taken from patent EP0678516B1, “Preparation of 2-bromo-5-(2-bromo-2-nitrovinyl)-furan and its use as microcide” (CENTRO DE BIOACTIVOS QUIMICOS DE LA UNIVERSIDAD CENTRAL DE …, priority 1994, dated 1995).
Values after ≈ are worked out from the molar mass of the structure shown.

Experiments:
[1] = tested on: Trichophyton mentagrophytes; assay: In vitro MIC (serial dilution); assay type: cell-based
Protocol: (§1) The antimicrobial sensitivity was first evaluated "in vitro" using the serial dilution method for bacteria and fungi. Other growth methods in agar cultures were included for other species. The liquid and solid mediums used were Mueller-Hinton, Tryptona Soya, Sabouraud Dextrosa, Sabouraud Maltose and other mediums in accordance with the cultural demands of the micro-organisms valued.
(§2) The temperature and incubation period was adjusted to conditions and characteristics of the micro-organisms used.
(§3) The Minimal Inhibitory Concentration (MIC) was calculated in terms of MIC50 and MIC90 in µg/ml.

[2] = tested on: Vibrio cholerae ser. Inabu; assay: In vitro MIC (serial dilution); assay type: cell-based
Protocol: as §1, §2, §3

[3] = tested on: Mycoplasma bovigenitalium; assay: In vitro MIC; assay type: cell-based; conditions: Mycoplasmopsis bovigenitalium, single value, MIC50 or MIC90 not stated, read-out: Minimal Inhibitory Concentration (MIC)
Protocol: as §1, §2, §3

Oral LD50 [4] = assay type: in vivo, mice OF1; conditions: taken orally, tragacant gum as vehicle
Description: (§4) Moreover, the anatomopathological elements and the clinical events were characterized during the experiments.

Oral LD50 [5] = assay type: in vivo, Sprague Dawley rats; conditions: taken orally, tragacant gum as vehicle
Description: as §4

Percutaneous LD50 [6] = assay type: in vivo, mice OF1; conditions: interscapular region, 0.2 ml/10 g of body mass
Description: as §4

Percutaneous LD50 [7] = assay type: in vivo, Sprague Dawley rats; conditions: interscapular region, 0.2 ml/10 g of body mass
Description: as §4

[8] = Ophthalmic irritability studies; assay type: in vivo
Description: as §4

[9] = Chronic study, external application for six months; assay type: in vivo, Sprague Dawley rats; conditions: applied externally for a period of six months
Description: Chronic studies of 2-bromo-5-(2-bromo-nitro-vinyl)-furan were made on Sprague Dawley rats.

Pseudomonas aeruginosa [10] = assay: Infected burn wound treated with ointments; assay type: in vivo, guinea-pigs; conditions: concentration of ointment applied on 2 cm^2 infected burns
Protocol: The "in vivo" effectiveness of four ointments of 2-bromo-5-(2-bromo-2-nitro-vinyl)-furan was evaluated at 1, 0.5, 0.25 and 0.125% in hydrophislous ointment applying it on 2 cm^2 of burns provoked to guinea-pigs and subsequently infected with Pseudomonas aeruginosa by a burn wound in an area of 2 cm^2, using positive and negative control groups.

Pseudomonas aeruginosa [11] = assay: Experimental eye infection, erosion and instillation method; assay type: in vivo, New Zealand Rabbits; conditions: post inoculation evaluation
Protocol: The effectiveness of two oil formulations was checked of 0.05% for the experimental treatment of eye infections by Pseudomonas aeruginosa in New Zealand Rabbits through the erosion and instillation method. The effectiveness of treatments was tested clinically and microbiologically, observing significant differences with the control group (not treated) (Table No. 2 and 2.1.).

Pseudomonas aeruginosa [12] = assay: Experimental infection, implanted sponge method; assay type: in vivo, mice
Protocol: The effectiveness of three oil formulations were also tested, at 0.15, 0.2, 0.25% and a control with placebo in mice experimentally infected using implanted sponge method, inoculated with Pseudomonas aeruginosa and Staphylococcus aureus. Recuperation of the animal was between 3 and 4 days of treatment (Tables No. 3 and 3.1).
Read: n = Accumulated from recuperated animals Tr = Recuperation time in days (weighted average) ((n1±1) + ((n2-n1) ±2)+((n3-n2)±3((n4-n3)±4)/n [formula] I,II, III: treated with 2-bromo-5-(2-bromo-2-nitro-vinyl)-furan.

queratoconjunctivitis = assay: Effectiveness against bacterial eye diseases, all treated eyes; assay type: in vivo; conditions: 9435 animal eyes, overall
Description: The effectiveness of the active principle against bacterial eye diseases in: 9435 animal eyes affected with queratoconjunctivitis; 8093 of cattle and 1342 of other species (sheep, rabbits, dogs, horses, pigs, cats, guinea-pigs and birds).

Pseudomonas aeruginosa [13] = assay: Intramuscular treatment of stud bulls affected with piocianosis; assay type: in vivo
Protocol: The active principle was administered in a dose of 5-10 mg/kg of body mass by intramuscular route in bulls affected with piocianosis Pseudomonas aeruginosa. […] In clinical tests no allergic reactions were detected in animals (Table No.5).

[14] = tested on: Streptococcus agalactiae and Staphylococcus aureus; assay: Intracisternal treatment of clinical mastitis; assay type: in vivo, femal oxes
Description: The active principle in a concentration of 0.1 % is applied by intracisternal route daily for three consecutive days in femal oxes clinically affected by mastitis of morbid catarrh purulen course types, in which the isolated micro-organisms were Streptococcus agalactiae and Staphylococcus aureus. As a control medicament the mammary infusion of neomicine was used.

[15] = tested on: septic puerperal metritis; assay: Treatment of septic puerperal metritis; assay type: in vivo, female oxes; conditions: G-1 1.5% oil solution intrauterine, Tetracycline abdominal aorta route
Protocol: The treatment consisted in applying 40 ml for three consecutive days at intervals of 24 hours from the diagnosis of the disease process. Treatment was compared with intrasoric tetracyclin.

[16] = group I, ointment at 0.05% for 8 days
[17] = group II, ointment at 0.05% for 4 days
[18] = group III, eye drops at 0.05% for 4 days
[19] = 5-10 mg/kg of body mass, intramuscular route
[20] = 25 ill bulls, 5 treatments per animal, 5-10 mg/kg intramuscular

Work on `O=[N+]([O-])C(Br)=Cc1ccc(Br)o1` [Product G-1, 2-bromo-5-(2-bromo-2-nitro-vinyl)-furan] yielded an MIC90 [1] of 40.6 µg/mL (≈ 137 µM), an MIC50 ([1]; read-out: MIC50 values) of 17.7 µg/mL (≈ 59.5 µM) and an MIC50 ([2]; read-out: MIC50 values) of 5.87 µg/mL (≈ 19.8 µM). The MIC90 ([2]; read-out: MIC90 values) was 17.7 µg/mL (≈ 59.5 µM), the MIC [3] was 50 µg/mL (≈ 168 µM) and the “Lethal Average Dose (LD50)” value (Oral LD50 [4]; mice OF1 females) was 1731.4 mg/kg of body mass. The “Lethal Average Dose (LD50)” value (Oral LD50 [4]; mice OF1 male) was 1835.8 mg/kg of body mass, the “Lethal Average Dose (LD50)” value (Oral LD50 [5]; female Sprague Dawley rats) was 1515.5 mg/kg of body mass and the “Lethal Average Dose (LD50)” value (Oral LD50 [5]; male Sprague Dawley rats) was 1857 mg/kg of body mass. The LD50 (Percutaneous LD50 [6]; mice OF1 females) was 9.8%, the LD50 (Percutaneous LD50 [6]; mice OF1 males) was 12.1% and the LD50 (Percutaneous LD50 [7]; female Sprague Dawley rats) was 14.7%. For the same molecule, the LD50 (Percutaneous LD50 [7]; male Sprague Dawley rats) was 15.8%, the “concentrations at which no irritating effects were made on the eye structure” value [8] was “lower than 1.25%” and the “haematological, haemochemical and histopathological studies” value [9] was “did not lead to any major problems in the different organs and tissues analysed”. The “effective dose 50 (ED50)” value (Pseudomonas aeruginosa [10]) was 0.125%, the “Bacteriolo-gical Exam” value (Pseudomonas aeruginosa [11]; [16]) was 6 (+) and the Edam (Pseudomonas aeruginosa [11]; [16]) was 6/6. For the same molecule, the Hyperemia (Pseudomonas aeruginosa [11]; [16]) was 6/6, the Secretions (Pseudomonas aeruginosa [11]; [16]) was 6/6 and the Ulcer (Pseudomonas aeruginosa [11]; [16]) was 6/6. The “Bacteriolo-gical Exam” value (Pseudomonas aeruginosa [11]; [17]) was 6 (+), the Edam (Pseudomonas aeruginosa [11]; [17]) was 6/6 and the Hyperemia (Pseudomonas aeruginosa [11]; [17]) was 6/6. For the same molecule, the Secretions (Pseudomonas aeruginosa [11]; [17]) was 6/6, the Ulcer (Pseudomonas aeruginosa [11]; [17]) was 6/6 and the “Bacteriolo-gical Exam” value (Pseudomonas aeruginosa [11]; [18]) was 6 (+). For the same molecule, the Edam (Pseudomonas aeruginosa [11]; [18]) was 6/6, the Hyperemia (Pseudomonas aeruginosa [11]; [18]) was 6/6 and the Secretions (Pseudomonas aeruginosa [11]; [18]) was 6/6. For the same molecule, the Ulcer (Pseudomonas aeruginosa [11]; [18]) was 6/6, the Accumulated clinical recuperation (Pseudomonas aeruginosa [12]; Formula 0.15%, day 3, 10 mice) was 80.0a % and the “Accumulated clinical recuperation, n (recuperated animals)” value (shortened to “Accumulated clinical recuperation, n”) (Pseudomonas aeruginosa [12]; Formula 0.15%, day 3, 10 mice) was 8. The Accumulated clinical recuperation (Pseudomonas aeruginosa [12]; Formula 0.15%, day 5, 10 mice) was 100.0a %, the “Accumulated clinical recuperation, n” value (Pseudomonas aeruginosa [12]; Formula 0.15%, day 5, 10 mice) was 10 and the Accumulated clinical recuperation (Pseudomonas aeruginosa [12]; Formula 0.15%, day 7, 10 mice) was 100.0%. For the same molecule, the “Accumulated clinical recuperation, n” value (Pseudomonas aeruginosa [12]; Formula 0.15%, day 7, 10 mice) was 10, the Accumulated clinical recuperation (Pseudomonas aeruginosa [12]; Formula 0.2%, day 3, 10 mice) was 80.0a % and the “Accumulated clinical recuperation, n” value (Pseudomonas aeruginosa [12]; Formula 0.2%, day 3, 10 mice) was 8. The Accumulated clinical recuperation (Pseudomonas aeruginosa [12]; Formula 0.2%, day 5, 10 mice) was 100.0a %, the “Accumulated clinical recuperation, n” value (Pseudomonas aeruginosa [12]; Formula 0.2%, day 5, 10 mice) was 10 and the Accumulated clinical recuperation (Pseudomonas aeruginosa [12]; Formula 0.2%, day 7, 10 mice) was 100.0%. The “Accumulated clinical recuperation, n” value (Pseudomonas aeruginosa [12]; Formula 0.2%, day 7, 10 mice) was 10, the Accumulated clinical recuperation (Pseudomonas aeruginosa [12]; Formula 0.25%, day 3, 10 mice) was 50.0a % and the “Accumulated clinical recuperation, n” value (Pseudomonas aeruginosa [12]; Formula 0.25%, day 3, 10 mice) was 5. For the same molecule, the Accumulated clinical recuperation (Pseudomonas aeruginosa [12]; Formula 0.25%, day 5, 10 mice) was 90.0a %, the “Accumulated clinical recuperation, n” value (Pseudomonas aeruginosa [12]; Formula 0.25%, day 5, 10 mice) was 9 and the Accumulated clinical recuperation (Pseudomonas aeruginosa [12]; Formula 0.25%, day 7, 10 mice) was 100.0%. For the same molecule, the “Accumulated clinical recuperation, n” value (Pseudomonas aeruginosa [12]; Formula 0.25%, day 7, 10 mice) was 10, the clinical recuperation (queratoconjunctivitis) was 89,6% and the “allergic reactions to the medicament” value (Pseudomonas aeruginosa [13]; [19]) was “without any allergic reactions to the medicament being detected”. For the same molecule, the “seminal parameters established as quality control” value (Pseudomonas aeruginosa [13]; [19]) was “no alterations being detected”, the “Recuperated (animals)” value (Pseudomonas aeruginosa [13]; [20]) was 21 and the percentage of effectiveness (Pseudomonas aeruginosa [13]; [20]) was 84%. The “bacteriological tests carried out in the semen” value (Pseudomonas aeruginosa [13]; at 3,7,14,21 and 28 days) was “negative at germ”, the “cytotoxicity and morphological characteristic of spermatozoid” value (Pseudomonas aeruginosa [13]; frozen semen of treated bulls) was “absence of cytotoxicity and variations in morphological characteristic of spermatozoid” and the “Recuperated n (affected parts)” value ([14]; G-I 0.1% intracisternal daily for three days (57 parts), neomicine mammary infusion (12 parts)) was 56. For the same molecule, the “Recuperated % (clinical recuperation of the affected parts)” value ([14]; G-I 0.1% intracisternal daily for three days, neomicine mammary infusion) was 98.25%, the Recuperated n ([15]; 27 females, 19 females) was 20 and the “IIA (Artificial insemination index)” value [15] was 1.091±0.30a. For the same molecule, the Recuperated % [15] was 74.1%, the “T-R (Average of treatment interval of clinical recuperation)” value [15] was 17.7 days and the “IIA (Artificial insemination index)” value ([15]; listed as new formula) was 1.09 ± 0.30.
